Experimental data from ChEMBL document CHEMBL1681786, “Synthesis, biological evaluation and 3D-QSAR studies of 3-keto salicylic acid chalcones and related amides as novel HIV-1 integrase inhibitors” (Bioorg Med Chem, 2011).
Each block holds one compound with its values, some of them ahead of it.

Experiments:
[1] = target: T1, Human immunodeficiency virus type 1 integrase (Human immunodeficiency virus 1, UniProt Q7ZJM1); test: Inhibition of Human immunodeficiency virus 1 integrase strand transfer activity after 30 mins by polyacrylamide gel electrophoresis
T1 sequence (Q7ZJM1 whole entry): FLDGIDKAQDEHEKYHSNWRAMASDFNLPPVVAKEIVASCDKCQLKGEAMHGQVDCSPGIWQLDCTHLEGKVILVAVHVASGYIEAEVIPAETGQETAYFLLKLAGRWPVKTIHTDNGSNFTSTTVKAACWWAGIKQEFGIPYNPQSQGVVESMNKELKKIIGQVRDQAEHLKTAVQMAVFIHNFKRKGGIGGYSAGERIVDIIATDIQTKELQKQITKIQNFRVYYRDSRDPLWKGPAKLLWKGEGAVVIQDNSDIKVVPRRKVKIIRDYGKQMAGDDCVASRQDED

[2] = target: T1, Human immunodeficiency virus type 1 integrase; test: Inhibition of Human immunodeficiency virus 1 integrase-mediated 3'-processing after 30 mins by polyacrylamide gel electrophoresis
PBMC = test: Cytotoxicity against human PBMC after 6 days by trypan blue assay; settings: 144 h
CCRF-CEM = test: Cytotoxicity against human CEM cells after 6 days by trypan blue assay; settings: 144 h
[3] = tested on: Human immunodeficiency virus 1; test: Antiviral activity against Human immunodeficiency virus 1 LAI infected in human PBMC assessed as inhibition of viral replication after 5 days by reverse transcriptase assay; type: functional, organism-based; settings: 120 h

SMILES: COc1ccc(/C=C/C(=O)c2cc(Br)cc(C(=O)O)c2O)c(OC)c1OC
- IC50 [1]: 51 µM
- IC50 [2]: 85 µM

SMILES: O=C(O)c1cc(Br)cc(C(=O)/C=C/c2cc(Cl)ccc2Cl)c1O
- IC50 [1]: 18 µM
- IC50 [2]: 47 µM

SMILES: O=C(O)c1cc(Br)cc(C(=O)/C=C/c2c(Cl)cccc2Cl)c1O
- IC50 [1]: 16 µM
- IC50 [2]: 52 µM

SMILES: O=C(O)c1cc(Br)cc(C(=O)/C=C/c2ccc(Cl)c(Cl)c2)c1O
- IC50 [1]: 14 µM
- IC50 [2]: 27 µM

SMILES: O=C(O)c1cc(Br)cc(C(=O)/C=C/c2cc(Cl)cc(Cl)c2Cl)c1O
- IC50 [1]: 13 µM
- IC50 [2]: 20 µM

SMILES: O=C(O)c1cc(Br)cc(C(=O)/C=C/c2c(Cl)ccc(Cl)c2Cl)c1O
- IC50 [1]: < 3.7 µM
- IC50 (PBMC): 22.7 µM
- IC50 [2]: 23 µM
- IC50 (CCRF-CEM): 19 µM
- EC50 [3]: 7.3 µM
- EC90 [3]: 20.3 µM

SMILES: O=C(O)c1cc(Cl)cc(C(=O)/C=C/c2ccc(Cl)cc2)c1O
- IC50 [1]: 53 µM
- IC50 [2]: 85 µM

- IC50 [1]: > 100 µM
- IC50 [2]: > 100 µM
SMILES: O=C(O)c1cc(Cl)cc(C(=O)/C=C/c2ccc(Cl)cc2Cl)c1O

SMILES: O=C(O)c1cc(Cl)cc(C(=O)/C=C/c2cccc(Cl)c2Cl)c1O
- IC50 [1]: 92 µM
- IC50 [2]: 100 µM

SMILES: O=C(O)c1cc(Cl)cc(C(=O)/C=C/c2cc(Cl)ccc2Cl)c1O
- IC50 [1]: 25 µM
- IC50 [2]: 75 µM

SMILES: O=C(O)c1cc(Cl)cc(C(=O)/C=C/c2cc(Cl)cc(Cl)c2Cl)c1O
- IC50 [1]: 17 µM
- IC50 [2]: 55 µM

SMILES: O=C(O)c1cc(Cl)cc(C(=O)/C=C/c2c(Cl)ccc(Cl)c2Cl)c1O
- IC50 [1]: 30 µM
- IC50 [2]: 77 µM

SMILES: O=C(O)c1cc(Cl)cc(C(=O)/C=C/c2ccc(Cl)c(Cl)c2)c1O
- IC50 [1]: 41 µM
- IC50 [2]: 87 µM

SMILES: O=C(O)c1cc(F)cc(C(=O)/C=C/c2ccc(Cl)cc2)c1O
- IC50 [1]: 17 µM
- IC50 [2]: 36 µM

SMILES: O=C(O)c1cc(F)cc(C(=O)/C=C/c2ccc(Cl)cc2Cl)c1O
- IC50 [1]: 24 µM
- IC50 [2]: 52 µM

SMILES: O=C(O)c1cc(F)cc(C(=O)/C=C/c2cccc(Cl)c2Cl)c1O
- IC50 [1]: 30 µM
- IC50 [2]: 55 µM

SMILES: O=C(O)c1cc(F)cc(C(=O)/C=C/c2cc(Cl)ccc2Cl)c1O
- IC50 [1]: 29 µM
- IC50 [2]: 50 µM

SMILES: O=C(O)c1cc(F)cc(C(=O)/C=C/c2cc(Cl)cc(Cl)c2Cl)c1O
- IC50 [1]: 15 µM
- IC50 [2]: 33 µM

SMILES: O=C(O)c1cc(F)cc(C(=O)/C=C/c2c(Cl)ccc(Cl)c2Cl)c1O
- IC50 [1]: 39 µM
- IC50 [2]: 82 µM

SMILES: Cc1cc(C)cc(/C=C/C(=O)c2cc(Br)cc(C(=O)O)c2O)c1
- IC50 [1]: 58 µM
- IC50 [2]: > 100 µM

SMILES: COc1ccc(/C=C/C(=O)c2cc(Br)cc(C(=O)O)c2O)c(Cl)c1OC
- IC50 [1]: 76 µM
- IC50 [2]: > 100 µM

SMILES: COc1cc(F)c(/C=C/C(=O)c2cc(Br)cc(C(=O)O)c2O)cc1OC
- IC50 [1]: 76 µM
- IC50 [2]: > 100 µM

SMILES: O=C(O)c1cc(Br)cc(C(=O)/C=C/c2ccccc2OCc2ccccc2)c1O
- IC50 [1]: 9 µM
- IC50 [2]: 21 µM

SMILES: O=C(O)c1cc(Br)cc(C(=O)/C=C/c2cccc(Oc3ccc(Cl)cc3)c2)c1O
- IC50 [1]: 18 µM
- IC50 [2]: 25 µM

SMILES: O=C(O)c1cc(Br)cc(C(=O)/C=C/c2ccc(Oc3ccc(Cl)cc3)cc2)c1O
- IC50 [1]: 16 µM
- IC50 [2]: 22 µM

SMILES: O=C(O)c1cc(Br)cc(C(=O)/C=C/c2ccsc2)c1O
- IC50 [1]: 18 µM
- IC50 [2]: 30 µM

SMILES: COc1ccc(/C=C/C(=O)c2cc(Br)cc(C(=O)O)c2O)cc1OC1CCCC1
- IC50 [1]: 55 µM
- IC50 [2]: 100 µM

SMILES: CCOc1ccc2ccccc2c1/C=C/C(=O)c1cc(Br)cc(C(=O)O)c1O
- IC50 [1]: 46 µM
- IC50 [2]: 92 µM

- IC50 [2]: 54 µM
SMILES: COc1cccc2c(/C=C/C(=O)c3cc(Br)cc(C(=O)O)c3O)cccc12

SMILES: O=C(O)c1cc(Br)cc(C(=O)/C=C/c2ccc3sccc3c2)c1O
- IC50 [1]: 11 µM
- IC50 (PBMC): 39.1 µM
- IC50 [2]: 23 µM
- IC50 (CCRF-CEM): 20.7 µM
- EC50 [3]: 10.1 µM
- EC90 [3]: 24.3 µM

SMILES: O=C(O)c1cc(Br)cc(C(=O)/C=C/c2ccccc2-c2ccco2)c1O
- IC50 [1]: 16 µM
- IC50 [2]: > 100 µM

SMILES: O=C(O)c1cc(Br)cc(C(=O)/C=C/c2cc3c(cc2Cl)OCO3)c1O
- IC50 [1]: 63 µM
- IC50 [2]: 79 µM

SMILES: O=C(O)c1cc(Br)cc(C(=O)/C=C/c2cccc(OC(F)(F)F)c2)c1O
- IC50 [1]: 52 µM
- IC50 [2]: > 100 µM

SMILES: O=C(O)c1cc(Br)cc(C(=O)/C=C/c2cccc([N+](=O)[O-])c2)c1O
- IC50 [1]: 32 µM
- IC50 [2]: 49 µM

SMILES: O=C(O)c1cc(Br)cc(C(=O)/C=C/c2cccc(Br)c2)c1O
- IC50 [1]: 18 µM
- IC50 [2]: 19 µM

SMILES: O=C(O)c1cc(Br)cc(C(=O)/C=C/c2cccc(F)c2)c1O
- IC50 [1]: 59 µM
- IC50 [2]: 71 µM

SMILES: N#Cc1cc(Br)cc(C(=O)/C=C/c2c(Cl)ccc(Cl)c2Cl)c1O
- IC50 [1]: 44 µM
- IC50 [2]: > 100 µM

SMILES: Cc1cc(C(=O)O)c(O)c(C(=O)/C=C/c2c(Cl)ccc(Cl)c2Cl)c1
- IC50 [1]: 50 µM
- IC50 [2]: > 100 µM

- IC50 [2]: > 333 µM
SMILES: O=C(/C=C/c1cc(Br)cc([N+](=O)[O-])c1O)c1cc(Cl)cc(Cl)c1Cl

SMILES: O=Cc1cc(Br)cc(C(=O)NCc2ccc(F)cc2)c1O
- IC50 [1]: 8 µM
- IC50 (PBMC): 44 µM
- IC50 [2]: > 100 µM
- IC50 (CCRF-CEM): 40.2 µM
- EC50 [3]: 30.8 µM
- EC90 [3]: 52.7 µM

SMILES: O=C(O)c1cc(F)cc(C(=O)CCc2cc(Cl)ccc2Cl)c1O
- IC50 [1]: 57 µM
- IC50 [2]: > 100 µM

SMILES: O=C(O)c1cc(Br)cc(C(=O)NCc2ccc(F)cc2)c1O
- IC50 [1]: 15 µM
- IC50 [2]: > 100 µM

- IC50 [1]: > 100 µM
- IC50 [2]: > 100 µM
SMILES: Cc1cccc(C(=O)NCc2ccc(F)cc2)c1O

- IC50 [1]: > 100 µM
- IC50 [2]: > 100 µM
SMILES: O=C(NCc1ccc(F)cc1)c1cc(Br)ccc1O

SMILES: O=C(O)c1cc(Br)cc(C(=O)/C=C/c2ccccc2)c1O
- IC50 [1]: 25 µM
- IC50 [2]: 75 µM

SMILES: O=C(O)c1cc(Br)cc(C(=O)/C=C/c2ccccc2Cl)c1O
- IC50 [1]: 14 µM
- IC50 [2]: 52 µM

SMILES: O=C(O)c1cc(Br)cc(C(=O)/C=C/c2ccccc2F)c1O
- IC50 [1]: 32 µM
- IC50 [2]: 74 µM

SMILES: O=C(O)c1cc(Br)cc(C(=O)/C=C/c2cccc(Cl)c2)c1O
- IC50 [1]: 9 µM
- IC50 [2]: 45 µM

SMILES: O=C(O)c1cc(Br)cc(C(=O)/C=C/c2ccc(Cl)cc2)c1O
- IC50 [1]: 12 µM
- IC50 [2]: 81 µM

SMILES: O=C(O)c1cc(Br)cc(C(=O)/C=C/c2ccc(Br)cc2)c1O
- IC50 [1]: 5 µM
- IC50 (PBMC): 24.4 µM
- IC50 [2]: 11 µM
- IC50 (CCRF-CEM): 27.5 µM
- EC50 [3]: 8.7 µM
- EC90 [3]: 21 µM

SMILES: O=C(O)c1cc(Br)cc(C(=O)/C=C/c2ccc(I)cc2)c1O
- IC50 [1]: 35 µM
- IC50 [2]: 69 µM

SMILES: O=C(O)c1cc(Br)cc(C(=O)/C=C/c2ccc(Cl)cc2Cl)c1O
- IC50 [1]: 7 µM
- IC50 (PBMC): 22.1 µM
- IC50 [2]: 28 µM
- IC50 (CCRF-CEM): 23.8 µM
- EC50 [3]: 13.9 µM
- EC90 [3]: 26 µM

SMILES: O=C(O)c1cc(Br)cc(C(=O)/C=C/c2cccc(Cl)c2Cl)c1O
- IC50 [1]: 19 µM
- IC50 [2]: 58 µM

SMILES: COc1cccc(/C=C/C(=O)c2cc(Br)cc(C(=O)O)c2O)c1OC
- IC50 [1]: 34 µM
- IC50 [2]: 62 µM

- EC50 [3]: 0.0025 µM
- EC90 [3]: 0.01 µM
SMILES: Cc1cn([C@H]2C[C@H](N=[N+]=[N-])[C@@H](CO)O2)c(=O)[nH]c1=O [ZIDOVUDINE]
- IC50 (PBMC): > 100 µM
- IC50 (CCRF-CEM): 56.1 µM
